US7705016B2, “Regulation of food intake by modulation of long-chain fatty acyl-CoA levels in the hypothalamus” (Albert Einstein College of Medicine of Yeshiva University, priority 2003, dated 2010)

Target: T1, CPT1 (Rattus norvegicus, UniProt P32198)
T1 construct: CPT1 activity was measured in the particulate fraction of protein extracts from animals treated with ICV control injections; from tissue; host or cells: hypothalamus (arcuate nucleus) of male Sprague-Dawley rats, in vivo or ex vivo
T1 sequence (P32198 2-773): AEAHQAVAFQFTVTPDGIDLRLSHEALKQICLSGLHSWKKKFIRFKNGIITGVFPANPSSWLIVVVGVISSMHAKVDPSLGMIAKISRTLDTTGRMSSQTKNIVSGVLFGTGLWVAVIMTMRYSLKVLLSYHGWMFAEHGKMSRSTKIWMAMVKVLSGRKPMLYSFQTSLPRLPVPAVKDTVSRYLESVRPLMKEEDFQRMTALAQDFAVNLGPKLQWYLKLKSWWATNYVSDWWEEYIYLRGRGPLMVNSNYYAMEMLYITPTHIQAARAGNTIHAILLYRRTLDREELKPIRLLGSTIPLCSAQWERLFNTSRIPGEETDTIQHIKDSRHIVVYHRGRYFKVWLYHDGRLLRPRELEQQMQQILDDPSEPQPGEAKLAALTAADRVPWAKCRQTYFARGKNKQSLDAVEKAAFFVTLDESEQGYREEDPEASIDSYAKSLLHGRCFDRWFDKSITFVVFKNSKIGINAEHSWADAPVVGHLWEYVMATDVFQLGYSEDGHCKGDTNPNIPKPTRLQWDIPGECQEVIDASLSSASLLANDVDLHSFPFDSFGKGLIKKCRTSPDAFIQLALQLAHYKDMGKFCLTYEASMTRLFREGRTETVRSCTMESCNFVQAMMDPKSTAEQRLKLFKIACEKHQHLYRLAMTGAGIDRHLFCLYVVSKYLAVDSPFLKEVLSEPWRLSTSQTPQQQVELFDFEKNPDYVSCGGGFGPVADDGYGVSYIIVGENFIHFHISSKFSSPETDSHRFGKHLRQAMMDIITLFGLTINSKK
Experiment: CPT1 activity in arcuate nuclei and whole hypothalamus after ICV injection
Format: in vivo
Conditions: after ICV administration
Experimental: Surgical implantation of ICV cannulae was performed on day 1 (˜3 weeks prior to the in vivo study). Full recovery of body weight and food intake was achieved by day 7. Rats randomized for ribozyme treatment received an ICV injection of CPT1L-Ribo, CPT inhibitors or controls on day 17. The experimental group treated with TDGA received ICV injection of the inhibitor on day 21, 6 hr prior to the harvesting of brains. Panels B. and C. show quantitation of CPT1L (B) and CPT1M (C) mRNA by real-time PCR. RNA was purified from individual hypothalamic nuclei (PVN, LHA, and arcuate), which were obtained by micro punch technique 3 days after ICV injection of pTarget control (▪; N=4) or CPT1LRibo (□; N=5). Copy number of CPT1 mRNA is normalized to β-Actin copy number ×10^6. […] CPT1 activity was measured in the particulate fraction of protein extracts from animals treated with ICV control injections (▪; N=6, receiving aCSF+2% DMSO or Control Ribo), TDGA ( ?; N=6), or CPTL-Ribo (□; N=5). […] Levels of stearoyl-CoA (F) and oleyl-CoA (E) respectively were measured by HPLC in arcuate of rats injected ICV with control compound (▪; ST1340) or ST1326 (□).
ICV catheters were implanted in male Sprague-Dawley rats by stereotaxic surgery (Obici et al., 2002a; Obici et al., 2001; Liu et al., 1998). […] Thus, we next measured CPT1 activity in ARC and in whole hypothalamus. […]

Substance: CPT1L-Ribo: plasmid (pTarget, CMV promoter) expressing a hammerhead ribozyme that specifically cleaves rat CPT1L mRNA, complexed to PEI for ICV injection (DNA CUGUACCAAAGAGCUGUAGAGUCCGUGAGGACGAAACGCCGCUCACAAUG)
- CPT1 activity in ARC: marked decrease
